From the NIST ThermoML archive (doi:10.1016/j.tca.2012.05.004)

Experiment: xn = mol fraction of the nth substance listed
Conditions: 101.3 kPa, Liquid, Vibrating tube method

ClCCCl [1,2-dichloroethane] + CCC(C)O
mass density [kg/m3]
Conditions	288.15 K	293.15 K	298.15 K	303.15 K	308.15 K	313.15 K
x2 = 0.0503	1231.77	1224.62	1217.45	1210.25	1203.02	1195.77
x2 = 0.0999	1204.93	1197.88	1190.8	1183.69	1176.55	1169.4
x2 = 0.1498	1179.01	1172.06	1165.09	1158.09	1151.05	1143.99
x2 = 0.1999	1153.69	1146.88	1140.03	1133.14	1126.22	1119.27
x2 = 0.2505	1128.43	1121.76	1115.05	1108.3	1101.51	1094.68
x2 = 0.2963	1106.34	1099.8	1093.22	1086.6	1079.94	1073.22
x2 = 0.3503	1080.63	1074.29	1067.22	1061.5	1055.06	1048.25
x2 = 0.3995	1057.91	1051.71	1045.45	1039.11	1032.79	1026.29
x2 = 0.4501	1034.98	1028.92	1022.81	1016.66	1010.45	1004.19
x2 = 0.4993	1013.03	1007.13	1001.19	995.186	989.131	983.023
x2 = 0.5486	991.648	985.947	980.168	974.12	968.223	962.22
x2 = 0.6	969.557	963.995	958.381	952.707	946.966	941.176
x2 = 0.6493	948.744	943.35	937.897	932.387	926.811	921.174
x2 = 0.6999	928.023	922.806	917.532	912.188	906.776	901.308
x2 = 0.7499	907.77	902.736	897.63	892.466	887.227	881.93
x2 = 0.7998	887.96	883.21	878.173	873.288	868.11	863.093
x2 = 0.8498	868.538	863.861	859.123	854.308	849.413	844.444
x2 = 0.8997	849.217	844.779	840.238	835.615	830.908	826.085
x2 = 0.95	829.951	825.697	821.349	816.932	812.451	807.826
